In US12122763B2, “Substituted piperidines for androgen receptor degradation” (UBIX THERAPEUTICS, INC., priority 2020, dated 2024):

Target: T1, Androgen Receptor (AR) protein (Homo sapiens, UniProt P10275, T878A)
T1 construct: endogenous in cells; host or cells: LNCaP
Assay: Androgen Receptor (AR) protein degradation assay in LNCaP cells, western blotting
Assay type: cell-based
Conditions: 20 h; for inhibition at 0.01 µM: 0.01 μM compound; for inhibition at 0.1 µM: 0.1 μM compound; for inhibition at 1 µM: 1 μM compound
Protocol: Experimental Example 1: Androgen Receptor (AR) Protein Degradation Assay
After treating LNCaP cells with the synthesized Example compound, the amount of AR protein present in the cells was measured. The amount of AR protein was measured using western blotting detection method. The protocol of the experiment using LNCaP cells was as follows:
[Culture] LNCaP cells were resuspended in RPMI1640 MEDIUM (Hyclone, SH30027.01), 10% FBS (Hyclone, SV30207.02), and 1% Penicillin-streptomycin (Welgene, LS 202-02) media to be 3×10^5/mL. Then, 1 mL each was seeded in a 12-well plate. After that, they were cultured for 3 days.
[Compound treatment] 10 μl of 0.1, 1, 10, and 100 μM compound, which is the final compound treatment concentration and a 100× stock of 0.001, 0.01, 0.1, and 1 μM, was added in 1 ml media of each well, and 20 hours later, the cells were harvested.
[Cell Lysis] Cell pellets were suspended using 1% SDS lysis buffer (50 mM Tris, 1 mM EDTA, 1% SDS, pH 8.0, 0.5 mM PMSF, 1× Protease/Phosphatase inhibitor Cocktail (Cell Signaling Technology, 5872s)), and sonication (70% AMP, 5 cycles (30 sec ON/59 sec OFF)) was performed. Cell lysate was obtained after centrifugation at 4° C., 15000 g, for 20 minutes.
[Protein quantification] A BCA protein assay (SMART™ BCA Protein Assay Kit, iNtRON Biotechnology, 21071) was performed using a 96-well microplate. After adding 5 μl cell lysate and 5 μl 1% SDS lysis buffer to each well of the 96-well plate, 200 μl of BCA reagent (Reagent A:Reagent B=50:1) was additionally added. After incubation at 37° C. for 30 minutes, it was cooled at room temperature for 10 minutes. Then, absorbance was measured at a wavelength of 562 nm. The unknown protein concentration was measured using a BSA standard curve (0, 0.125, 0.25, 0.5, 1, 2 mg/ml). Western blotting samples were prepared by mixing cell lysate, 1% SDS lysis buffer, 4× Bolt™ LDS Sample buffer (Invitrogen, B0008), and 10× Bolt™ Sample Reducing Agent (Invitrogen, B0009) and boiling the mixture at 70° C. for 10 minutes.
[Electrophoresis] After loading 8 μg of protein sample into each well of Bolt™ 4 to 12%, Bis-Tris, 1.0 mm Mini Protein Gel, 17-well (Invitrogen, NW04127BOX), Bolt™ MES SDS Running Buffer (Invitrogen, B0002) was used for electrophoresis at 200V (constant V) for 50 minutes.
[Transfer] Using electrophoresis gel and Trans-Blot® Turbo™ Transfer Starter System (Bio-RAD, #17001918, Mini Nitrocellulose), transfer proceeded for 15 minutes under the condition of 1.3A (Constant A) and 25V (Limit V). To confirm protein transfer, 15 ml of Ponceau S solution (Sigma, P7170-1L) was used for staining for 1 minute, followed by washing to confirm the degree of transfer.
[Blocking] Membranes for AR detection were blocked for 45 minutes with 5% skim milk/0.2% TBST (Skim milk: BD, 232100/20× TBS: Biosesang, TR2008-100-00/10% Tween 20 Solution: Bio-RAD, #161-0781). Membranes for GAPDH and β-actin detection were blocked for 45 minutes with Odyssey blocking buffer: 0.1% TBST=1:1 (Odyssey blocking buffer: Li-COR Biosciences, 927-50000).
[Antibody and detection] The primary AR antibody (Androgen Receptor: CST, 5153s) was mixed with 5% skim milk/0.2% TBST at a ratio of 1:1000 and attached for 3 hours at room temperature. Primary β-actin antibody (GeneTex, 629630) was mixed with 5% BSA/0.2% TBST at a ratio of 1:2000 and attached for 3 hours at room temperature. Primary GAPDH antibody (GeneTex, 100118) was mixed with 5% BSA/0.2% TBST at a ratio of 1:2000 and attached for 3 hours at room temperature. After 3 hours, it was washed 3 times every 5 minutes using TBST (0.2% Tween 20). Anti-rabbit IgG, HRP-linked Antibody (CST, 7074s), secondary antibody for the AR antibody was mixed with 5% skim milk/0.2% TBST at a ratio of 1:5000 and attached for 45 minutes at room temperature. […]

T1 sequence (P10275 whole entry T878A): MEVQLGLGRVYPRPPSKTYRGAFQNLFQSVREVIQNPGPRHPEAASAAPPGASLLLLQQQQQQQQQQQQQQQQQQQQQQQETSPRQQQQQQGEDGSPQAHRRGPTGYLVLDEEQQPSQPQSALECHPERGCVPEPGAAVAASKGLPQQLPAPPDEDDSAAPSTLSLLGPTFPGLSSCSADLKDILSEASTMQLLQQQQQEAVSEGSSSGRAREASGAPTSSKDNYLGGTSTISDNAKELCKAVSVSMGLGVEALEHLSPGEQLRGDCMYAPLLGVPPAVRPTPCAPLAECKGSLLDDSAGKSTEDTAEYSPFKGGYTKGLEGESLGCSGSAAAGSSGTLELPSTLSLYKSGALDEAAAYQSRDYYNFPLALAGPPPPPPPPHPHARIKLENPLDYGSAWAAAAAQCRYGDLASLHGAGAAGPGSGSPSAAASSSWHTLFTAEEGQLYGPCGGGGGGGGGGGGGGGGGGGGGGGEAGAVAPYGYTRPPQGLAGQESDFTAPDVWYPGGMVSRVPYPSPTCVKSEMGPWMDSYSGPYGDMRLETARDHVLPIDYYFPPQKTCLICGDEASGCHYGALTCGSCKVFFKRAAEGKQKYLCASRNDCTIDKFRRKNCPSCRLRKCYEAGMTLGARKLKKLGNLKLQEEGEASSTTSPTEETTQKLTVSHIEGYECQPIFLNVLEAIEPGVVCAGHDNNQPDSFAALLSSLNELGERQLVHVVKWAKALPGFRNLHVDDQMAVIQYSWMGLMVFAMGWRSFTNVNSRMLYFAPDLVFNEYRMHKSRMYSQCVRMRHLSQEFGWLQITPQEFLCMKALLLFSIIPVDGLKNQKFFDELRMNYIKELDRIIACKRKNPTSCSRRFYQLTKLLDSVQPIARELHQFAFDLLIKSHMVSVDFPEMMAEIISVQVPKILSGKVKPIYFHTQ
T1 sequence (Q96SW2 whole entry partner): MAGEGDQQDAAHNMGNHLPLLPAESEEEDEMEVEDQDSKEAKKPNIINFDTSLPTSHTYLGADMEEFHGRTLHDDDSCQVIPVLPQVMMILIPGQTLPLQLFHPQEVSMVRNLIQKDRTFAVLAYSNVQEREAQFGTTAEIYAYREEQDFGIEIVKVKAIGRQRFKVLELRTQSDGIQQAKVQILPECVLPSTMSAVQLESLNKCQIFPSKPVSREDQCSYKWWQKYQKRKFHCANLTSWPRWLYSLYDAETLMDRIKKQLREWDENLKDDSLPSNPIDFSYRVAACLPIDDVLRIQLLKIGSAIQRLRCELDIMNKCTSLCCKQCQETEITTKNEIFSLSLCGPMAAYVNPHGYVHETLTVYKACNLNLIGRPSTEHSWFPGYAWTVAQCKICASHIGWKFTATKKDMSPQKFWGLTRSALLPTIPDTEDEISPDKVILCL

SMILES	inhibition at 0.01 µM [%]	inhibition at 0.1 µM [%]	inhibition at 1 µM [%]
N#Cc1ccc(N2CCC(C(=O)Nc3ccc(N4CCC(CN5CCN(C[C@H]6CCN(c7ccc8c(c7)C(=O)N(C7CCC(=O)NC7=O)C8=O)C6)CC5)CC4)cn3)CC2)cc1C(F)(F)F (stereo partly drawn) [Example 14, 1-(4-cyano-3-(trifluoromethyl)phenyl)-N-(5-(4-((4-(((3R)-1-(2-(2,6-dioxopiperidin-3-yl)-1,3-dioxoisoindolin-5-yl)pyrrolidin-3-yl)methyl)piperazin-1-yl)methyl)piperidin-1-yl)pyridin-2-yl)piperidine-4-carboxamide]	72	98	97
N#Cc1ccc(N2CCC(C(=O)Nc3ccc(N4CCC(CN5CCN(C[C@@H]6CCN(c7ccc8c(c7)C(=O)N(C7CCC(=O)NC7=O)C8=O)C6)CC5)CC4)cn3)CC2)cc1C(F)(F)F (stereo partly drawn) [Example 15, 1-(4-cyano-3-(trifluoromethyl)phenyl)-N-(5-(4-((4-(((3S)-1-(2-(2,6-dioxopiperidin-3-yl)-1,3-dioxoisoindolin-5-yl)pyrrolidin-3-yl)methyl)piperazin-1-yl)methyl)piperidin-1-yl)pyridin-2-yl)piperidine-4-carboxamide]	60	97	98
N#Cc1ccc(N2CCC(C(=O)Nc3ccc(N4CCC(CN5CCN(C[C@H]6CCCN(c7ccc8c(c7)C(=O)N(C7CCC(=O)NC7=O)C8=O)C6)CC5)CC4)cn3)CC2)cc1C(F)(F)F (stereo partly drawn) [Example 16, 1-(4-cyano-3-(trifluoromethyl)phenyl)-N-(5-(4-((4-(((3R)-1-(2-(2,6-dioxopiperidin-3-yl)-1,3-dioxoisoindolin-5-yl)piperidin-3-yl)methyl)piperazin-1-yl)methyl)piperidin-1-yl)pyridin-2-yl)piperidine-4-carboxamide]	50	94	97
N#Cc1ccc(N2CCC(C(=O)Nc3ccc(N4CCC(CN5CCN(C[C@@H]6CCCN(c7ccc8c(c7)C(=O)N(C7CCC(=O)NC7=O)C8=O)C6)CC5)CC4)cn3)CC2)cc1C(F)(F)F (stereo partly drawn) [Example 17, 1-(4-cyano-3-(trifluoromethyl)phenyl)-N-(5-(4-((4-(((3S)-1-(2-(2,6-dioxopiperidin-3-yl)-1,3-dioxoisoindolin-5-yl)piperidin-3-yl)methyl)piperazin-1-yl)methyl)piperidin-1-yl)pyridin-2-yl)piperidine-4-carboxamide]	44	90	90
N#Cc1ccc(N2CCC(C(=O)Nc3ccc(N4CCC(CN5CCN(CC6CCN(c7cc8c(cc7F)C(=O)N(C7CCC(=O)NC7=O)C8=O)CC6)CC5)CC4)cn3)CC2)cc1C(F)(F)F (stereo not drawn) [Example 18, 1-(4-cyano-3-(trifluoromethyl)phenyl)-N-(5-(4-((4-((1-(2-(2,6-dioxopiperidin-3-yl)-6-fluoro-1,3-dioxoisoindolin-5-yl)piperidin-4-yl)methyl)piperazin-1-yl)methyl)piperidin-1-yl)pyridin-2-yl)piperidine-4-carboxamide]	36	93	95
N#Cc1ccc(N2CCC(C(=O)Nc3ccc(N4CCC(CN5CCN(C[C@H]6CCN(c7cc8c(cc7F)C(=O)N(C7CCC(=O)NC7=O)C8=O)C6)CC5)CC4)cn3)CC2)cc1C(F)(F)F (stereo partly drawn) [Example 19, 1-(4-cyano-3-(trifluoromethyl)phenyl)-N-(5-(4-((4-(((3R)-1-(2-(2,6-dioxopiperidin-3-yl)-6-fluoro-1,3-dioxoisoindolin-5-yl)pyrrolidin-3-yl)methyl)piperazin-1-yl)methyl)piperidin-1-yl)pyridin-2-yl)piperidine-4-carboxamide]	42	93	96
N#Cc1ccc(N2CCC(C(=O)Nc3ccc(N4CCC(CN5CCN(CC6CN(c7cc8c(cc7F)C(=O)N(C7CCC(=O)NC7=O)C8=O)C6)CC5)CC4)cn3)CC2)cc1C(F)(F)F (stereo not drawn) [Example 20, 1-(4-cyano-3-(trifluoromethyl)phenyl)-N-(5-(4-((4-((1-(2-(2,6-dioxopiperidin-3-yl)-6-fluoro-1,3-dioxoisoindolin-5-yl)azetidin-3-yl)methyl)piperazin-1-yl)methyl)piperidin-1-yl)pyridin-2-yl)piperidine-4-carboxamide]	67	97	97
N#Cc1ccc(N2CCC(C(=O)Nc3ccc(N4CCC(CN5CCN(CC6CCN(c7ccc8c(c7)C(=O)N(C7CCC(=O)NC7=O)C8=O)CC6)CC5)CC4)cc3)CC2)cc1C(F)(F)F (stereo not drawn) [Example 21, 1-(4-cyano-3-(trifluoromethyl)phenyl)-N-(4-(4-((4-((1-(2-(2,6-dioxopiperidin-3-yl)-1,3-dioxoisoindolin-5-yl)piperidin-4-yl)methyl)piperazin-1-yl)methyl)piperidin-1-yl)phenyl)piperidine-4-carboxamide]	47	50	63
N#Cc1ccc(N2CCC(C(=O)Nc3ccc(N4CCC(CN5CCN(C[C@H]6CCN(c7ccc8c(c7)C(=O)N(C7CCC(=O)NC7=O)C8=O)C6)CC5)CC4)cc3)CC2)cc1C(F)(F)F (stereo partly drawn) [Example 22, 1-(4-cyano-3-(trifluoromethyl)phenyl)-N-(4-(4-((4-(((3R)-1-(2-(2,6-dioxopiperidin-3-yl)-1,3-dioxoisoindolin-5-yl)pyrrolidin-3-yl)methyl)piperazin-1-yl)methyl)piperidin-1-yl)phenyl)piperidine-4-carboxamide]	1	24	49
C[C@@H]1CN(CC2CCN(c3ccc4c(c3)C(=O)N(C3CCC(=O)NC3=O)C4=O)CC2)CCN1CC1CCN(c2ccc(NC(=O)C3CCN(c4ccc(C#N)c(C(F)(F)F)c4)CC3)nc2)CC1 (stereo partly drawn) [Example 23, 1-(4-cyano-3-(trifluoromethyl)phenyl)-N-(5-(4-(((2R)-4-((1-(2-(2,6-dioxopiperidin-3-yl)-1,3-dioxoisoindolin-5-yl)piperidin-4-yl)methyl)-2-methylpiperazin-1-yl)methyl)piperidin-1-yl)pyridin-2-yl)piperidine-4-carboxamide]	69	98	97
C[C@@H]1CN(CC2CN(c3ccc4c(c3)C(=O)N(C3CCC(=O)NC3=O)C4=O)C2)CCN1CC1CCN(c2ccc(NC(=O)C3CCN(c4ccc(C#N)c(C(F)(F)F)c4)CC3)nc2)CC1 (stereo partly drawn) [Example 24, 1-(4-cyano-3-(trifluoromethyl)phenyl)-N-(5-(4-(((2R)-4-((1-(2-(2,6-dioxopiperidin-3-yl)-1,3-dioxoisoindolin-5-yl)azetidin-3-yl)methyl)-2-methylpiperazin-1-yl)methyl)piperidin-1-yl)pyridin-2-yl)piperidine-4-carboxamide]	53	96	95
